From ChEMBL document CHEMBL5728432, “Potent and selective mu opioid receptor modulators” (2021)

Biological target: Mu-type opioid receptor (Homo sapiens, UniProt P35372)
Test: Competition Binding Assay: The competition binding assay was conducted to determine the affinity and selectivity of the synthesized compounds to MOR over KOR and DOR. The Kd and Bmax values for [3H]NLX at MOR and [3H]DPN at KOR had been determined previously. […] [3H]NLX was used to label MOR whilst [3H]DPN was used to label both DOR and KOR. The potency of the new compounds in displacing the specific binding of the radioligand was determined by linear regression analysis of Hill plots.

Chain of Mu-type opioid receptor (P35372 whole entry): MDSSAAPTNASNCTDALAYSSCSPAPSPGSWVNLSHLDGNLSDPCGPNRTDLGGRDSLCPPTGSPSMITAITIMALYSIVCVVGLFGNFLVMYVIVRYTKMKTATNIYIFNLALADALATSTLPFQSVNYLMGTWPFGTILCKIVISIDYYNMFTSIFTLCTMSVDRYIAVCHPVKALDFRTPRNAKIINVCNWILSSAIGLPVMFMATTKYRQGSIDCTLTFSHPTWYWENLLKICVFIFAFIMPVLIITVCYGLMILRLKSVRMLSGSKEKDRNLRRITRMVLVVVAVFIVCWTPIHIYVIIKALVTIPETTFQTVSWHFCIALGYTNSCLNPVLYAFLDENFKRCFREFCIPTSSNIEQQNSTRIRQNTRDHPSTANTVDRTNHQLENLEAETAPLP

| SMILES | Ki |
| --- | --- |
| O=C(Cc1c[nH]c2ccccc12)N[C@@H]1CC[C@@]2(O)[C@H]3Cc4ccc(O)c5c4[C@@]2(CCN3CC2CC2)[C@H]1O5 | 0.241 nM |
| O=C(N[C@H]1CC[C@@]2(O)[C@H]3Cc4ccc(O)c5c4[C@@]2(CCN3CC2CC2)[C@H]1O5)c1ccc2cc[nH]c2c1 | 0.434 nM |
| O=C(CCCc1c[nH]c2ccccc12)N[C@@H]1CC[C@@]2(O)[C@H]3Cc4ccc(O)c5c4[C@@]2(CCN3CC2CC2)[C@H]1O5 | 0.203 nM |
| O=C(CCc1c[nH]c2ccccc12)N[C@@H]1CC[C@@]2(O)[C@H]3Cc4ccc(O)c5c4[C@@]2(CCN3CC2CC2)[C@H]1O5 | 0.167 nM |
| O=C(CCCc1c[nH]c2ccccc12)N[C@H]1CC[C@@]2(O)[C@H]3Cc4ccc(O)c5c4[C@@]2(CCN3CC2CC2)[C@H]1O5 | 0.293 nM |
| O=C(N[C@H]1CC[C@@]2(O)[C@H]3Cc4ccc(O)c5c4[C@@]2(CCN3CC2CC2)[C@H]1O5)c1cccc2[nH]ccc12 | 0.264 nM |
| O=C(N[C@H]1CC[C@@]2(O)[C@H]3Cc4ccc(O)c5c4[C@@]2(CCN3CC2CC2)[C@H]1O5)c1c[nH]c2ccccc12 | 0.288 nM |
| O=C(N[C@H]1CC[C@@]2(O)[C@H]3Cc4ccc(O)c5c4[C@@]2(CCN3CC2CC2)[C@H]1O5)c1cc2ccccc2[nH]1 | 0.363 nM |
| O=C(N[C@H]1CC[C@@]2(O)[C@H]3Cc4ccc(O)c5c4[C@@]2(CCN3CC2CC2)[C@H]1O5)c1ccc2[nH]ccc2c1 | 0.763 nM |
| O=C(Cc1c[nH]c2ccccc12)N[C@H]1CC[C@@]2(O)[C@H]3Cc4ccc(O)c5c4[C@@]2(CCN3CC2CC2)[C@H]1O5 | 0.837 nM |
| O=C(CCc1c[nH]c2ccccc12)N[C@H]1CC[C@@]2(O)[C@H]3Cc4ccc(O)c5c4[C@@]2(CCN3CC2CC2)[C@H]1O5 | 0.437 nM |
